Measurements published in patent publication US20140011755A1, “Cardiac Glycosides for Treating Autoimmune Disease” (Department of Veterans Affairs, priority 2010, published 2014).
Entries after “also recorded” stand apart in the source; their conditions may differ.

Experiments:
[1] = tested on: TNF-mediated NFκB activity in HeLa cells; test: NFκB luciferase reporter assay in TNF-stimulated HeLa cells; type: cell-based; details: pre-treatment 6 hours with 0-500 nM, 50 ng/mL TNF
Experimental: (§1) FIG. 8. […] Values represent mean light units produced. Error bars represent SEM, and statistical significance was determined by unpaired T-test. Single and double asterisks represent P-values of 0.01 or 0.001, respectively. […] Samples were harvested at designated time points and were fractionated into nuclear and cytoplasmic lysates (Pierce). Lysates were quantified using BCA (Pierce), and were equally loaded according to total protein. Membranes were probed for levels of nuclear phospho-p65 (ReIA), phospho-ReIB, and histone (histone served as loading control and fractionation method control) and cytoplasmic degradation of IκBα (beta-tubulin served as loading control and fractionation method control).
(§2) HeLa cells were co-transfected with the reporter pNFκB-luc and control vector pTAL (Renilla) for 18 h prior to incubation with 0-500 nM cardiac glycoside for 6 h. Cells are stimulated with 50 ng/mL TNF. […] FIG. 8 B).

nuclear phospho-p65 = test: Western blot of nuclear phospho-p65 in CD40L-stimulated CIA B cells; type: cell-based, mice; details: 33 nM for 1 h, 50 ng/mL CD40L
Experimental: as §1, §2

CD40 = target: T1, CD40 (Mus musculus, UniProt P27512); type: cell-based, mice; details: pre-treatment with 3.3 or 33 nM
T1 construct: Peritoneal and bone marrow-derived macrophages were isolated from CIA mice; endogenous in cells; host or cells: peritoneal and bone marrow-derived macrophages from CIA mice
T1 sequence (P27512 20-289): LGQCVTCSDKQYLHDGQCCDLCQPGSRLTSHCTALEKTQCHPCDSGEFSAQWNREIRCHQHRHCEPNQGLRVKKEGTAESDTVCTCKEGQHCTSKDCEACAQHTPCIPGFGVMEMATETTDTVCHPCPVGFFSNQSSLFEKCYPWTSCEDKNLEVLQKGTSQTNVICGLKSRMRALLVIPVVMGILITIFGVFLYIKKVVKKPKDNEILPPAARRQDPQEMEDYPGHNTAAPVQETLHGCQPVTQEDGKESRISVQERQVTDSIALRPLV
Experimental: (§3) Activity was monitored by ^3H-thymidine incorporation as a read-out for proliferation. […] Cell type(s) in the splenocyte population responsive to therapeutic concentrations of cardiac glycoside were determined by identifying the population of cells that responded to a dose-dependent decrease in activity in the presence of stimulant, defined as ligand(s) binding to cognate receptor(s). Activity was analyzed by: ^3H-thymidine or BrdU incorporation to monitor proliferation or by ELISA to monitor cytokine production. Splenic T lymphocytes were isolated by negative selection (MACS, Miltinyi Biotec) and are stimulated with PMA, ConA or through the TCR with anti-CD3/anti-CD28 Dynabeads (Invitrogen) and collagen II (all non-TNFR receptors/pathways). […] Peritoneal and bone marrow-derived macrophages were isolated from CIA mice in the presence of M-CSF growth factor and were stimulated with TNF and CD40 ligand (CD40L). […] Splenic B lymphocytes were isolated by negative selection (MACS, Miltinyi Biotec) and were stimulated with BAFF (BLyS), CD40L or through the BCR with anti-IgM u-chain specific antibodies.

TNFR = type: cell-based, mice; details: pre-treatment with 3.3 or 33 nM
Experimental: as §3

T cell receptor = type: cell-based, mice; details: non-TNFR family member; therapeutic concentrations
Experimental: as §3

[2] = CHCI3/16% aqueous methanol (MeOH); cited from earlier work
[3] = Serum concentration obtained with experimental dosing regimen, mouse; type: in vivo; details: 0.3 mg/kg per diem, i.p., experimentally determined
Experimental: Dosing regimens in humans vary according to the cardiac glycoside and constitution thereof. Table 3 depicts representative dosing regimens reported in the literature compared to experimental regiments used in mice that are representative of human dosing. Successful dosing detailed in this application includes but is not limited to 0.03-0.4 mg/kg., or from 0.001 to 5 mg/kg.

TNF, IL-6 and IL-1beta = test: Serum cytokine ELISA in CIA treatment groups; type: in vivo; details: serum from 3 mice per treatment group, ELISA in triplicate
Description: FIG. 9. Serum cytokine levels are similar between vehicle and cardiac glycoside treatment groups. […] The unpaired student t-test was used to assess significance.

[4] = tested on: collagen-induced arthritis (CIA); type: in vivo, DBA1/J mice
[5] = daily i.p. from Mean Visual Score of 2, digitoxin 0.3 mg/kg, proscillaridin […], Mann-Whitney

Which results are given for `C[C@H]1O[C@@H](O[C@H]2[C@@H](O)C[C@H](O[C@H]3[C@@H](O)C[C@H](O[C@H]4CC[C@@]5(C)[C@H](CC[C@@H]6[C@@H]5CC[C@]5(C)[C@@H](C7=CC(=O)OC7)CC[C@]65O)C4)O[C@@H]3C)O[C@@H]2C)C[C@H](O)[C@@H]1O` [Digitoxin, digitoxin]?
TNF-mediated NFκB activation (luciferase light units) [1]: reduced TNF-mediated NFκB activation in a dose-dependent fashion; amount of nuclear phospho-p65 following CD40L stimulation (nuclear phospho-p65): significantly reduced; CD40L-mediated activation of macrophage through CD40 (CD40): inhibits; TNF-mediated activation of macrophage through TNFR (TNFR): inhibits; proliferation of T cells in response to stimulation through the T cell receptor (T cell receptor): did not alter proliferation; Partition Coefficient [2]: 96.5; Serum conc. [3]: 19 ng/mL; Serum cytokine levels (TNF, IL-6 and IL-1beta) versus vehicle (TNF, IL-6 and IL-1beta): similar; disease and inflammation (clinical score, paw thickness), dosing every three days i.p. ([4]; 0.9 mg/kg digitoxin or 0.6 mg/kg ouabain, i.p., days −3, 0, 3, 6, 9, 12 after boost): significantly less disease and inflammation; onset of collagen arthritis, dosing every three days sublingual ([4]; 0.9 mg/kg digitoxin or 0.6 mg/kg ouabain, sublingual, days −3, 0, 3, 6, 9, 12 after boost): significantly inhibited the onset of collagen arthritis; also recorded: effective in preventing; Mean Paw Thickness, treatment of established arthritis [4, 5]: statistically significant reductions; Mean Visual Score, treatment of established arthritis [4, 5]: statistically significant reductions; development of CIA (Mean Visual Arthritis Score, Mean Paw Thickness), prevention study ([4]; daily i.p. from the day prior to induction, digitoxin 0.3 mg/kg, ouabain 0.03 mg/kg, proscillaridin […]): prevented the development of CIA; average clinical arthritis scores compared to vehicle, prevention study ([4]; mouse, in vivo): significantly reduced; prevention and treatment of collagen-induced arthritis (CIA) ([4]; murine model for rheumatoid arthritis, summary statement): potently prevent and treat
